The target in assay [1] is P70S6K (T412E mutant) (Homo sapiens (Human), UniProt P23443, T412E). Kind of assay: P70S6K enzyme assay. In kind it is biochemical. The note with it: read-out: IC50 p70S6K. The gist of the method:
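Read-out is the substrate/phosphopeptide ratio from mobility-shift electrophoresis on a LabChip 3000.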

Assay [2] deals with His-AKT (Full Length) (Homo sapiens (Human), UniProt P31749). Kind of assay: AKT enzyme assay. In kind it is biochemical. As to conditions: read-out: IC50 AKT.
His-AKT (Full Length), sequence (P31749 whole entry): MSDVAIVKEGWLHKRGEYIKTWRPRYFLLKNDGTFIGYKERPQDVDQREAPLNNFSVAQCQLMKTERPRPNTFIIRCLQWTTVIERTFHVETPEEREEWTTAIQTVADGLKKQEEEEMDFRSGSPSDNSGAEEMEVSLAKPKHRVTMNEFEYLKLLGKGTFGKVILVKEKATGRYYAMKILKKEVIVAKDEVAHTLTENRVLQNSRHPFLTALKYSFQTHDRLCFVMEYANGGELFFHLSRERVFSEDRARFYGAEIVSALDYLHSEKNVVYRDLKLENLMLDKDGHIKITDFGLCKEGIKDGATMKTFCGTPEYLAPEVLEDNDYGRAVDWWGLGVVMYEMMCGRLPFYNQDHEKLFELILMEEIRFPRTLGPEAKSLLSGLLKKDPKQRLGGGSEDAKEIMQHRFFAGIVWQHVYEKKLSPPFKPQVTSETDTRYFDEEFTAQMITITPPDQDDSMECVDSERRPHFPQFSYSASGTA

P70S6K (T412E mutant), sequence (P23443 whole entry T412E): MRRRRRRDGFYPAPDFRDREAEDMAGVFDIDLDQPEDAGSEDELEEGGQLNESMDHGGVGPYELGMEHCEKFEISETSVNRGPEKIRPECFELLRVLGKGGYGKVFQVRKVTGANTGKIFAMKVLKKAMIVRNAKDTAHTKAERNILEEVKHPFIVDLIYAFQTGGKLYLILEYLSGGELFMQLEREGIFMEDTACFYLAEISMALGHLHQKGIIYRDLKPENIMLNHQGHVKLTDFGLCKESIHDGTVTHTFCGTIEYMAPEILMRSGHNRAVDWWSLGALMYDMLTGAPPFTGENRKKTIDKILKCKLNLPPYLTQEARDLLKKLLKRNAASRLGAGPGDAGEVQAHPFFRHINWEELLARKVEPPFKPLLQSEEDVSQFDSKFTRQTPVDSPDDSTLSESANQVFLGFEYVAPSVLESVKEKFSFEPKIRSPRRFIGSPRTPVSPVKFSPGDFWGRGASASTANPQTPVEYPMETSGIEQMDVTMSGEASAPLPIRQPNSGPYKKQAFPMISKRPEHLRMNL

By IC50 is commonly meant the concentration needed to halve the response being measured. Regarding `Nc1ncnc(N2CCC(c3nc(-c4ccnc(C(F)(F)F)c4)cn3CCN3CCC3)CC2)c1Br` [Compound 126, 6-(4-(1-(2-(azetidin-1-yl)ethyl)-4-(2-(trifluoromethyl)pyridin-4-yl)-1H-imidazol-2-yl)piperidin-1-yl)-5-bromopyrimidin-4-amine], the IC50 in assay [1] stood at 0.5 nM; in assay [2] it was 2.2 nM.
`CCc1c(N)ncnc1N1CCC(c2nc(-c3cccc(OC(F)(F)F)c3)cn2CCN2CCC2)CC1` [Compound 100, 6-(4-(1-(2-(azetidin-1-yl)ethyl)-4-(3-(trifluoromethoxy)phenyl)-1H-imidazol-2-yl)piperidin-1-yl)-5-ethylpyrimidin-4-amine]: the IC50 in assay [1] was determined as 2.3 nM; in assay [2] it was 16 nM.
For `CCc1c(N)ncnc1N1CCC(c2nc(-c3ccc(OC)c(C(N)=O)c3)cn2CCN2CCC2)CC1` [Compound 107, 5-(2-(1-(6-amino-5-ethylpyrimidin-4-yl)piperidin-4-yl)-1-(2-(azetidin-1-yl)ethyl)-1H-imidazol-4-yl)-2-methoxybenzamide], the IC50 in assay [1] stood at 98 nM; in assay [2] it was 160 nM.
For the compound `COCCNCCn1cc(-c2ccc(F)c(C(F)(F)F)c2)nc1C1CCN(c2ncnc(N)c2C(N)=O)CC1` [Compound 367, 4-Amino-6-(4-{4-(4-fluoro-3-trifluoromethyl-phenyl)-1-[2-(2-methoxy-ethylamino)-ethyl]-1H-imidazol-2-yl}-piperidin-1-yl)-pyrimidine-5-carboxylic acid amide], the IC50 is 4 nM in assay [1] and 67 nM in assay [2].
With `CCc1c(N)ncnc1N1CCC(c2nc(-c3ccc(F)c(C(F)(F)F)c3)cn2CC2CNC2)CC1` [Compound 151, 6-(4-(1-(azetidin-3-ylmethyl)-4-(4-fluoro-3-(trifluoromethyl)phenyl)-1H-imidazol-2-yl)piperidin-1-yl)-5-ethylpyrimidin-4-amine], the results for the IC50 in assay [1] and in assay [2] were 2.2 nM and 19 nM, respectively.
Consider `N#Cc1c(N)ncnc1N1CCC(c2nc(-c3ccc(F)c(C(F)(F)F)c3)cn2C2CNC2)CC1` [Compound 142, 4-amino-6-(4-(1-(azetidin-3-yl)-4-(4-fluoro-3-(trifluoromethyl)phenyl)-1H-imidazol-2-yl)piperidin-1-yl)pyrimidine-5-carbonitrile], for which the IC50 was determined as 6.4 nM in assay [1] and 240 nM in assay [2].
Regarding `CC(C)(C)NCCn1cc(-c2ccc(F)c(C(F)(F)F)c2)nc1C1CCN(c2ncnc(N)c2C(N)=O)CC1` [Compound 377, 4-Amino-6-{4-[1-(2-tert-butylamino-ethyl)-4-(4-fluoro-3-trifluoromethyl-phenyl)-1H-imidazol-2-yl]-piperidin-1-yl}-pyrimidine-5-carboxylic acid amide], the figures for the IC50 in assay [1] and in assay [2] were 2 nM and 9.7 nM, respectively.
For the compound `Cc1cc(-c2cn(CC3CN(CO)C3)c(C3CCN(c4ncnc(N)c4C(C)C)CC3)n2)ccc1F` [Compound 399, {3-[2-[1-(6-Amino-5-isopropyl-pyrimidin-4-yl)-piperidin-4-yl]-4-(4-fluoro-3-methyl-phenyl)-imidazol-1-ylmethyl]-azetidin-1-yl}-methanol], the IC50 in assay [1] turned out to be 2.5 nM; in assay [2] it was 56 nM.
Turning to `N#Cc1c(N)ncnc1N1CCC(c2nc(-c3ccc(F)c(Cl)c3)cn2CCN2CCCC2)CC1` [Compound 307], the results for the IC50 in assay [1] and in assay [2] were 0.8 nM and 1.5 nM, respectively.
The like results for `Nc1ncnc(N2CCC(c3nc(-c4cccc(F)c4)cn3CCN3CCCC3)CC2)c1C1CCC1` [Compound 257] were, in that order, 4 nM and 20 nM.
The corresponding values for `CCc1c(N)ncnc1N1CCC(c2nc(-c3ccc(F)c(C)c3)cn2CCN2CCCC2)CC1` [Compound 297] are 3.9 nM and 6.6 nM.
For the compound `CCc1c(N)ncnc1N1CCC(c2nc(-c3cncc(C(F)(F)F)c3)cn2CCN2CCC2)CC1` [Compound 99, 6-(4-(1-(2-(azetidin-1-yl)ethyl)-4-(5-(trifluoromethyl)pyridin-3-yl)-1H-imidazol-2-yl)piperidin-1-yl)-5-ethylpyrimidin-4-amine], the IC50 was 4.5 nM in assay [1] and 18 nM in assay [2].
Regarding `CCc1c(N)ncnc1N1CCC(c2nc(-c3ccc(F)cc3)cn2CCN2CCOCC2)CC1` [Compound 195, 5-Ethyl-6-{4-[4-(4-fluoro-phenyl)-1-(2-morpholin-4-yl-ethyl)-1H-imidazol-2-yl]-piperidin-1-yl}-pyrimidin-4-ylamine], the IC50 in assay [1] was 16 nM; in assay [2], greater than 1000 nM.
For `Nc1ncnc(N2CCC(c3nc(-c4ccc(F)c(C(F)(F)F)c4)cn3CCN3CCCC3)CC2)c1F` [Compound 211], the IC50 in assay [1] and in assay [2] was 23 nM each time.
Consider `Cn1cc(-c2ccc(F)c(C(F)(F)F)c2)nc1C1CCN(c2ncnc(N)c2-c2ccc(F)cc2)CC1` [Compound 10, 5-(4-Fluoro-phenyl)-6-{4-[4-(4-fluoro-3-trifluoromethyl-phenyl)-1-methyl-1H-imidazol-2-yl]-piperidin-1-yl}-pyrimidin-4-ylamine], for which the values for the IC50 in assay [1] and in assay [2] were 3.4 nM and 2200 nM, respectively.
The like results for `Nc1ncnc(N2CCC(c3nc(-c4ccc(F)c(C(F)(F)F)c4)cn3CCN3CCC3)CC2)c1-c1cn[nH]c1` [Compound 98, 6-(4-(1-(2-(azetidin-1-yl)ethyl)-4-(4-fluoro-3-(trifluoromethyl)phenyl)-1H-imidazol-2-yl)piperidin-1-yl)-5-(1H-pyrazol-4-yl)pyrimidin-4-amine] were, in that order, 3 nM and 6.9 nM.
For the compound `N#Cc1c(N)ncnc1N1CCC(c2nc(-c3ccc(F)cc3)cn2CCN2CCCC2)CC1` [Compound 308], the values for the IC50 in assay [1] and in assay [2] were 2.6 nM and 13 nM, respectively.
The like results for `CN(C)CCn1cc(-c2ccc(F)c(C(F)(F)F)c2)nc1C1CCN(c2ncnc(N)c2-c2ccc(F)cc2)CC1` [Compound 68, 6-{4-[1-(2-Dimethylamino-ethyl)-4-(4-fluoro-3-trifluoromethyl-phenyl)-1H-imidazol-2-yl]-piperidin-1-yl}-5-(4-fluoro-phenyl)-pyrimidin-4-ylamine] were, in that order, 7.3 nM and 230 nM.
Take `Nc1ncnc(N2CCC(c3nc(-c4ccc(F)c(C(F)(F)F)c4)cn3CCN3CCC3)CC2)c1-c1ccc(F)cc1` [Compound 219]: the IC50 in assay [1] was 2.4 nM; in assay [2], 2.3 nM.
Consider `CC(C)c1cc(-c2cn(CCN3CCC3)c(C3CCN(c4ncnc(N)c4Cl)CC3)n2)ccn1` [Compound 180, 6-(4-(1-(2-(azetidin-1-yl)ethyl)-4-(2-isopropylpyridin-4-yl)-1H-imidazol-2-yl)piperidin-1-yl)-5-chloropyrimidin-4-amine], for which the half-maximal inhibitory concentration (IC50) in assay [1] came out at 1.1 nM; in assay [2] it was 2.4 nM.
Consider `Cc1ncc(-c2c(N)ncnc2N2CCC(c3nc(-c4ccc(F)c(C(F)(F)F)c4)cn3C)CC2)s1` [Compound 55, 6-{4-[4-(4-Fluoro-3-trifluoromethyl-phenyl)-1-methyl-1H-imidazol-2-yl]-piperidin-1-yl}-5-(2-methyl-thiazol-5-yl)-pyrimidin-4-ylamine], for which the IC50 is 2.1 nM in assay [1] and 850 nM in assay [2].
Take `Nc1ncnc(N2CCC(c3nc(-c4cccc(C(F)(F)F)c4)cn3CCN3CCCC3)CC2)c1Br` [Compound 267]: the half-maximal inhibitory concentration (IC50) in assay [1] is 2.2 nM; in assay [2] it was 4.2 nM.

The record behind these values is patent publication US9145392B2, “Imidazole amines as modulators of kinase activity” (Merck Patent GmbH, priority 2011, dated 2015).
